Results as given in publication PMC6100075, “Correlation between the Potency of Flavonoids on Mushroom Tyrosinase Inhibitory Activity and Melanin Synthesis in Melanocytes” (Molecules : A Journal of Synthetic Chemistry and Natural …, 2018).
Read-outs that look alike come from different tables or passages of the source.

What was measured:
tyrosinase = test system: tyrosinase; design: method as in PMID 17295516; conditions: cited from earlier work
mushroom tyrosinase [1] = conditions: read-out: monophenolase activity of mushroom tyrosinase IC50; cited from earlier work
[2] = test system: human melanoma cells (MMV II); design: method as in PMID 25248426; conditions: cited from earlier work
mushroom tyrosinase [3] = target: mushroom tyrosinase (Agaricus bisporus, UniProt C7FF04); assay: Mushroom tyrosinase inhibitory assay (o-diphenolase activity, L-DOPA as substrate); type: biochemical; conditions: for behaviour as substrate of mushroom tyrosinase (in words): pre-incubation with enzyme in absence of L-DOPA, coloured product at 475 nm; for inhibition at 200 µM: read-out: Mushroom Tyrosinase Inhibition % Inhibition (at 200 μM);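 on all read-outs here: enzyme and test sample preincubated 10 min at 25 °C in pH 6.8 phosphate buffer, 50% DMSO vehicle as control, enzyme-free mixture as blank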
murine tyrosinase = target: T1, murine tyrosinase (Mus musculus, UniProt P11344); assay: Murine tyrosinase inhibitory assay (o-diphenolase activity, crude enzyme from B16-F10 melanoma cells); type: biochemical; conditions: 200 μM, L-DOPA substrate;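 further: crude tyrosinase taken from lysed, dialyzed B16-F10 cell extract, with the inhibition reaction incubated for 2 h at 37 °C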
T1 construct: The cells were lysed by vortex and incubated at 4 °C for 1 h to solubilize the tyrosinase enzyme; endogenous in cells; host or cells: B16-F10 melanoma cells (Triton X-100 lysate, dialyzed)
T1 sequence (P11344 19-533): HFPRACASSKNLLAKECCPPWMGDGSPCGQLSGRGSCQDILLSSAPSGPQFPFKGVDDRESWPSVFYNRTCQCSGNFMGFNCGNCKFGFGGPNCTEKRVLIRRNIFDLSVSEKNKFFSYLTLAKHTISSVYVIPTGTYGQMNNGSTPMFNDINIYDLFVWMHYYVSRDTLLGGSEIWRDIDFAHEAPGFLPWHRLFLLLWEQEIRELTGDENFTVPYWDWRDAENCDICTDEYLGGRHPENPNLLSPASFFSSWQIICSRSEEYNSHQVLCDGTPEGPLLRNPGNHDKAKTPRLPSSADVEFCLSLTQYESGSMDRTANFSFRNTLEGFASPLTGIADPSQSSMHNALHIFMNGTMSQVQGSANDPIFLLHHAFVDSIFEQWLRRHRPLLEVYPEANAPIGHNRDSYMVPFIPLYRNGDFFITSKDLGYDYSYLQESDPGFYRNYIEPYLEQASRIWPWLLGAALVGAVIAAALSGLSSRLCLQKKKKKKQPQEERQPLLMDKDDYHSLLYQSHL

B16-F10 melanoma cells [4] = assay: Total melanin content assay; type: cell-based, Mus musculus (mouse); conditions: for activity at 15 µM / activity at 30 µM: B16-F10, read-out: % Melanin Content; for activity at 15 µM / activity at 30 µM / % Melanin Content: 72 h, relative to control
Protocol: Mus musculus (mouse) melanoma cell line, B16-F10 (ATCC® Number: CRL-6475™, Manassas, VA, USA), was cultured in complete Dulbecco′s Modified Eagle′s Medium (DMEM, phenol red-free medium) containing 10% fetal bovine serum, 25 mM glucose, 4 mM L-glutamine, 1 mM sodium pyruvate, 10 μg/mL penicillin, and 10 μg/mL streptomycin, at 37 °C, with 5% carbon dioxide (CO2) in a humidified atmosphere.
The total melanin content, produced both extracellularly and intracellularly, was determined as follows: B16-F10 cells were seeded onto a 24-well plate at a concentration of 50,000 cells/0.5 mL/well and were incubated for 24 h, followed by treatment with either the test compounds or the control (0.5% DMSO), and then incubated for 72 h. For extraction, the total produced melanin and 0.5 mL of 2 N NaOH containing 20% DMSO were added directly to the cell culture medium, mixed by pipetting and then incubated at room temperature for 1 h. The lysed cell extract was centrifuged at 13,000× g for 5 min. Finally, the supernatant was transferred to a 96-well plate and the relative melanin content was detected at 405 nm using a micro plate reader. Kojic acid and oxyresveratrol were used as positive controls.

[5] = Cell viability assay (PrestoBlue resazurin); type: cell-based, Mus musculus (mouse); conditions: mouse, 72 h, relative to control, read-out: % Cell Viability;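 further: mouse B16-F10 melanoma cells exposed to test samples for 72 h, with viability read as fluorescence of resorufin formed when living cells reduce PrestoBlue resazurin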
B16-F10 melanoma cells [6] = assay: Cell viability assay (PrestoBlue resazurin); type: cell-based, Mus musculus (mouse);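 further: mouse B16-F10 melanoma cells exposed to test samples for 72 h, with viability read as fluorescence of resorufin formed when living cells reduce PrestoBlue resazurin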
[7] = test system: murine B16-F10 melanoma cells; design: method as in PMID 17873839, PMID 14717847, PMID 16794334, PMID 26656314; conditions: cited from earlier work
[8] = read-out: Murine Tyrosinase Inhibition, % (at 200 μM)
[9] = 30 μM, 72 h, relative to control
[10] = read-out: Murine Tyrosinase Inhibition, % (at 200 μM), symbol

Sequence of mushroom tyrosinase (Agaricus bisporus, UniProt C7FF04) (G1K3P4 entry or part of it): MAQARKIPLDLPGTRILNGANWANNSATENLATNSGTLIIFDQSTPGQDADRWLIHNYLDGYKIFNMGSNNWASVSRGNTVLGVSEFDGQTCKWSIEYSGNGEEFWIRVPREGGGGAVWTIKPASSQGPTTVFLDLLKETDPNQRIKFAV
Sequence of mushroom tyrosinase (Agaricus bisporus, UniProt C7FF04) (C7FF04 2-392): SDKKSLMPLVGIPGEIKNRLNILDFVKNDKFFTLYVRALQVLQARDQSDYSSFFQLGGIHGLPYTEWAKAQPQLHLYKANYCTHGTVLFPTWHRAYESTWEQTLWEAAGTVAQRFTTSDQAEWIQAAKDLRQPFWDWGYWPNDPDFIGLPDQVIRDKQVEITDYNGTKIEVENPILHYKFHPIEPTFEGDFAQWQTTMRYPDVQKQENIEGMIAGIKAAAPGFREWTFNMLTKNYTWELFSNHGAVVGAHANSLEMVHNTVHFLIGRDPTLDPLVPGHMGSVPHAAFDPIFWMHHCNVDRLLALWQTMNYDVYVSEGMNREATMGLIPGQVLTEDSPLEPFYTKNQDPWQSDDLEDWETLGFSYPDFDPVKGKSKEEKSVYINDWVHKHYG

O=c1c(-c2ccc(O)cc2)coc2c(O)c(O)cc(O)c12 [5,7,8,4′-tetrahydroxyisoflavone]
inhibition of monophenolase and diphenolase activities of tyrosinase (in words) (tyrosinase): irreversibly inhibit

O=c1c(-c2ccc(O)cc2)coc2cc(O)c(O)cc12 [6,7,4′-trihydroxyisoflavone]
IC50 (mushroom tyrosinase [1]): 9.2 µM

O=c1c(-c2ccc(O)cc2)coc2c(O)c(O)ccc12 [7,8,4′-trihydroxyisoflavone]
inhibition of monophenolase and diphenolase activities of tyrosinase (in words) (tyrosinase): irreversibly inhibit

O=c1c(-c2ccc(O)cc2)coc2cc(O)cc(O)c12 [Compound 4, Genistein]
effect on melanogenesis (in words) [2]: melanogenesis-promoting actions | behaviour as substrate of mushroom tyrosinase (in words) (mushroom tyrosinase [3]): chromogenic substrate analogs | inhibition at 200 µM (murine tyrosinase; [8]): 9.9 ± 3.1% | effect on melanin content (in words, Figure 1) (B16-F10 melanoma cells [4]; 30 μM): increased the melanin content | activity at 15 µM (B16-F10 melanoma cells [4]; Mus musculus, 15 μM): 165.1 ± 1.6% | activity at 30 µM (B16-F10 melanoma cells [4]; Mus musculus, 30 μM): 192 ± 13.9% | IC50 (mushroom tyrosinase [1]): 822 µM | viability at 72 h, 15 µM [5]: 128 ± 3.5% | viability at 72 h, 30 µM [5]: 93.8 ± 5.7%

COc1cc(O)c(-c2coc3cc(O)cc(O)c3c2=O)cc1O [Compound 5, Khrinone B]
inhibition at 200 µM (mushroom tyrosinase [3]; 200 μM, L-DOPA substrate): 72.7 ± 2.2% | inhibition at 200 µM (murine tyrosinase; [8]): 10.1 ± 3% | activity at 15 µM (B16-F10 melanoma cells [4]; Mus musculus, 15 μM): 84.1 ± 5.3% | activity at 30 µM (B16-F10 melanoma cells [4]; Mus musculus, 30 μM): 34.7 ± 12.3% | % Cell Viability (B16-F10 melanoma cells [6]; [9]): 62.3 ± 15.1% | viability at 72 h, 15 µM ([5]; B16-F10 melanoma cells): 95.1 ± 5.4% | viability at 72 h, 30 µM ([5]; B16-F10 melanoma cells): 60%

COc1ccc([C@H]2COc3cc(O)ccc3C2=O)c(OC)c1 [Compound 14, (3S)-Sativanone]
inhibition at 500 µM (mushroom tyrosinase [3]; L-DOPA substrate): 13% | inhibition at 200 µM (murine tyrosinase; [8]): 9.5 ± 1.6% | activity at 15 µM (B16-F10 melanoma cells [4]; Mus musculus, 15 μM): 124 ± 4.3% | activity at 30 µM (B16-F10 melanoma cells [4]; Mus musculus, 30 μM): 128 ± 6% | % Cell Viability (B16-F10 melanoma cells [6]; [9]): 64.3 ± 23.7% | viability at 72 h, 15 µM ([5]; B16-F10 melanoma cells): 107 ± 10.6% | viability at 72 h, 30 µM ([5]; B16-F10 melanoma cells): 60%

COc1ccc(C2COc3c(ccc(O)c3OC)C2)c(O)c1O [Compound 21, (3R,S)-3′-Hydroxy-8-methoxy vestitol]
inhibition at 200 µM (mushroom tyrosinase [3]; 200 μM, L-DOPA substrate): 64.1 ± 1.3% | inhibition at 200 µM (murine tyrosinase; [8]): 11.4 ± 2.5% | activity at 15 µM (B16-F10 melanoma cells [4]; Mus musculus, 15 μM): 97 ± 6.3% | activity at 30 µM (B16-F10 melanoma cells [4]; Mus musculus, 30 μM): 36.3 ± 0.1% | % Cell Viability (B16-F10 melanoma cells [6]; [9]): 62.4 ± 3.2% | viability at 72 h, 15 µM ([5]; B16-F10 melanoma cells): 102.9 ± 1% | viability at 72 h, 30 µM ([5]; B16-F10 melanoma cells): 60%

COc1ccc(C2COc3c(ccc(O)c3OC)C2)c(OC)c1O (stereo not shown) [Compound 22, Duartin]
inhibition at 500 µM (mushroom tyrosinase [3]; L-DOPA substrate): 0% | inhibition at 200 µM (murine tyrosinase; [10]): < 0% | increase in melanin content with respect to the control (B16-F10 melanoma cells [4]): three-fold increase | effect on melanin content (in words, Figure 1) (B16-F10 melanoma cells [4]; 30 μM): increased the melanin content | activity at 15 µM (B16-F10 melanoma cells [4]; Mus musculus, 15 μM): 301.1 ± 2.3% | activity at 30 µM (B16-F10 melanoma cells [4]; Mus musculus, 30 μM): 326.8 ± 2.1% | viability at 72 h, 15 µM ([5]; B16-F10 melanoma cells): 140 ± 7.5% | viability at 72 h, 30 µM ([5]; B16-F10 melanoma cells): 94.4 ± 2.8%

COc1ccc([C@H]2COc3c(ccc(O)c3O)C2)c(OC)c1O [Compound 23, (3S)-8-Demethylduartin]
behaviour as substrate of mushroom tyrosinase (in words) (mushroom tyrosinase [3]): chromogenic substrate analog | inhibition at 200 µM (murine tyrosinase; [10]): < 0% | activity at 15 µM (B16-F10 melanoma cells [4]; Mus musculus, 15 μM): 87.8 ± 2% | activity at 30 µM (B16-F10 melanoma cells [4]; Mus musculus, 30 μM): 72.7 ± 4.3% | viability at 72 h, 15 µM ([5]; B16-F10 melanoma cells): 93.5 ± 3% | viability at 72 h, 30 µM ([5]; B16-F10 melanoma cells): 98.3 ± 5.4%

O=C1C[C@@H](c2ccc(O)cc2)Oc2cc(O)ccc21 [Compound 24, (2S)-Liquiritigenin]
inhibition at 200 µM (mushroom tyrosinase [3]): 52.1 ± 1.4% | inhibition at 200 µM (murine tyrosinase; [8]): 13.2 ± 2.7% | activity at 15 µM (B16-F10 melanoma cells [4]; Mus musculus, 15 μM): 103 ± 5.5% | activity at 30 µM (B16-F10 melanoma cells [4]; Mus musculus, 30 μM): 124 ± 2% | viability at 72 h, 15 µM ([5]; B16-F10 melanoma cells): 98.9 ± 10.7% | viability at 72 h, 30 µM ([5]; B16-F10 melanoma cells): 100 ± 3.5%

O=C1C[C@@H](c2ccc(O)cc2)Oc2cc(O)cc(O)c21 [Compound 25, (2S)-Naringenin]
behaviour as substrate of mushroom tyrosinase (in words) (mushroom tyrosinase [3]): chromogenic substrate analogs | inhibition at 200 µM (murine tyrosinase; [10]): < 0% | effect on melanin content (in words, Figure 1) (B16-F10 melanoma cells [4]; 30 μM): increased the melanin content | activity at 15 µM (B16-F10 melanoma cells [4]; Mus musculus, 15 μM): 132 ± 14.5% | activity at 30 µM (B16-F10 melanoma cells [4]; Mus musculus, 30 μM): 152 ± 3.8% | viability at 72 h, 15 µM ([5]; B16-F10 melanoma cells): 94.3 ± 2% | viability at 72 h, 30 µM ([5]; B16-F10 melanoma cells): 98.1 ± 0.5%

COc1cc2c(cc1O)[C@@H]1COc3cc(O)ccc3[C@@H]1O2 [Compound 27, (6aR,11aR)-3,8-Dihydroxy-9-methoxy pterocarpan]
inhibition at 200 µM (mushroom tyrosinase [3]; 200 μM, L-DOPA substrate): 84.6 ± 0.6% | inhibition at 200 µM (murine tyrosinase; [8]): 29.2 ± 2.9% | effect on melanin content (in words, Figure 1) (B16-F10 melanoma cells [4]; 30 μM): inhibitory effect of melanogenesis | inhibition at 15 µM (B16-F10 melanoma cells [4]; Mus musculus, B16-F10, 15 μM, read-out: inhibition of melanogenesis): 59% | activity at 15 µM (B16-F10 melanoma cells [4]; Mus musculus, 15 μM): 41.9 ± 0.4% | activity at 30 µM (B16-F10 melanoma cells [4]; Mus musculus, 30 μM): 53.5 ± 0.4% | toxicity to B16-F10 cells (in words) (B16-F10 melanoma cells [6]; 15 μM): no toxicity | % Cell Viability (B16-F10 melanoma cells [6]; [9]): 14.5 ± 0.9% | viability at 72 h, 15 µM ([5]; B16-F10 melanoma cells): 106 ± 4.9% | viability at 72 h, 30 µM ([5]; B16-F10 melanoma cells): 14%

O=c1cc(-c2ccc(O)cc2)oc2cc(O)cc(O)c12 [apigenin]
effect on melanogenesis (in words) [2]: melanogenesis-promoting actions

O=c1cc(-c2ccccc2)oc2cc(O)cc(O)c12 [chrysin]
effect on melanogenesis (in words) [2]: melanogenesis-promoting actions

O=c1c(-c2ccc(O)cc2)coc2cc(O)ccc12 [daidzein, 7,4′-dihydroxyisoflavone]
IC50 (mushroom tyrosinase [1]): 264 µM

O=c1c(O)c(-c2ccc(O)c(O)c2)oc2cc(O)ccc12 [fisetin]
effect on melanogenesis (in words) [2]: melanogenesis-promoting actions

COc1cc2c(=O)c(-c3ccc(O)cc3)coc2cc1O [glycitein, 6-methoxy-7,4′-dihydroxyisoflavone]
IC50 (mushroom tyrosinase [1]): 237 µM

O=c1c(O)c(-c2ccc(O)cc2)oc2cc(O)cc(O)c12 [kaempferol]
effect on melanogenesis (in words) [2]: melanogenesis-promoting actions

O=c1cc(-c2ccc(O)c(O)c2)oc2cc(O)cc(O)c12 [luteolin]
effect on melanogenesis (in words) [2]: melanogenesis-promoting actions

O=C1C[C@@H](c2ccc(O)cc2)Oc2cc(O)cc(O)c21 [naringenin]
effect on melanogenesis (in words) [7]: stimulate melanogenesis

O=c1c(O)c(-c2ccc(O)c(O)c2)oc2cc(O)cc(O)c12 [quercetin]
effect on melanogenesis (in words) [2]: melanogenesis-promoting actions | effect on melanogenesis (in words) [7]: stimulate melanogenesis

COc1cc(O)c2c(=O)c(O)c(-c3ccc(O)c(O)c3)oc2c1 [rhamnetin]
effect on melanogenesis (in words) [2]: melanogenesis-promoting actions

Alpinetin [Compound 26]
Mushroom Tyrosinase Inhibition % Inhibition (at 200 μM) (mushroom tyrosinase [3]; 200 μM, L-DOPA substrate): 36.9 ± 0.5% | IC50 (mushroom tyrosinase [3]; L-DOPA substrate, read-out: Mushroom Tyrosinase Inhibition IC50): 450 ± 48.5 µM | Murine Tyrosinase Inhibition, % (at 200 μM), symbol (murine tyrosinase): - (no inhibition at 200 μM) | % Melanin Content (B16-F10 melanoma cells [4]; 15 μM): 89.7 ± 0.4% | % Melanin Content (B16-F10 melanoma cells [4]; 30 μM): 92.3 ± 1.6% | % Cell Viability (B16-F10 melanoma cells [6]; 15 μM): 77.0 ± 12.7% | % Cell Viability (B16-F10 melanoma cells [6]; 30 μM): 77.1 ± 10.2%
